Active and inactive are the calls of the source. The calls are words filed in the database; no cut-off is given here.
What was measured:
[1] = Selectivity index, ratio of IC50 for human ASPC1 cells assessed as inhibition of cell viability incubated for 6 hrs followed by compound washout measured after 114 hrs by Cell Titer Glo assay to IC50 for human ASPC1 cells assessed as inhibition of cell viability incubated for 120 hrs of continuous treatment by Cell Titer Glo assay; type: functional
[2] = test system: von Hippel-Lindau disease tumor suppressor/GTPase KRas (Homo sapiens), P01116+P40337 [G12D]; test: PROTAC activity at VHL/KRAS G12D mutant in human ASPC1 cells assessed as decrease in pERK level at 1 uM incubated for 6 hrs followed by compound washout measured for <4 hrs by Western blot analysis; type: cell-based
von Hippel-Lindau disease tumor suppressor/GTPase KRas (Homo sapiens), P01116+P40337 [G12D], sequence (P01116 whole entry G12D): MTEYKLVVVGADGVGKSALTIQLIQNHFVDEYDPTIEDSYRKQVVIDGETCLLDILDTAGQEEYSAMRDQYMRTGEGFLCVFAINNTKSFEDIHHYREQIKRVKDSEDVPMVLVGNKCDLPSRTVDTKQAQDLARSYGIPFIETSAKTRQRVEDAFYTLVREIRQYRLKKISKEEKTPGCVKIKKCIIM
von Hippel-Lindau disease tumor suppressor/GTPase KRas (Homo sapiens), P01116+P40337 [G12D], sequence (P40337 whole entry partner): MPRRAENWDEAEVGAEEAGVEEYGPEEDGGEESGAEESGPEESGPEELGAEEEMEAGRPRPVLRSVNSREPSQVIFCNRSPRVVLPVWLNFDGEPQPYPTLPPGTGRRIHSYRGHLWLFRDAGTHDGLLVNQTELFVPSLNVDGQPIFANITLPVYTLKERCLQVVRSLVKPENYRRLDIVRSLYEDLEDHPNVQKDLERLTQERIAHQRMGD

ASPC1 [3] = test: Antiproliferative activity against human ASPC1 cells assessed as inhibition of cell viability incubated for 6 hrs followed by compound washout measured after 114 hrs by Cell Titer Glo assay; type: functional, cell-based
ASPC1 [4] = test: Antiproliferative activity against human ASPC1 cells assessed as inhibition of cell viability incubated for 120 hrs of continuous treatment by Cell Titer Glo assay; type: functional, cell-based; conditions: ASPC1, 120 h
ASPC1 [5] = test: Antiproliferative activity against human ASPC1 cells harboring KRAS G12D mutant assessed as inhibition of cell viability incubated for 5 days by Cell Titer Glo assay; type: functional, cell-based; conditions: ASPC1, 120 h
SNU1 = test: Antiproliferative activity against human SNU1 cells harboring KRAS G12D mutant assessed as inhibition of cell viability incubated for 5 days by Cell Titer Glo assay; type: functional, cell-based; conditions: SNU1, 120 h
HPAF-II = test: Antiproliferative activity against human HPAF-II cells harboring KRAS G12D mutant assessed as inhibition of cell viability incubated for 5 days by Cell Titer Glo assay; type: functional, cell-based; conditions: 120 h
AGS = test: Antiproliferative activity against human AGS cells harboring KRAS G12D mutant assessed as inhibition of cell viability incubated for 5 days by Cell Titer Glo assay; type: functional, cell-based; conditions: 120 h
Panc 04.03 = test: Antiproliferative activity against human Panc 04.03 cells harboring KRAS G12D mutant assessed as inhibition of cell viability incubated for 5 days by Cell Titer Glo assay; type: functional, cell-based; conditions: Panc 04.03, 120 h
NCI-H358 = test: Antiproliferative activity against human NCI-H358 cells harboring KRAS G12C mutant assessed as inhibition of cell viability incubated for 5 days by Cell Titer Glo assay; type: functional, cell-based; conditions: NCI-H358, 120 h
NCI-H1975 = test: Antiproliferative activity against human NCI-H1975 cells harboring wild-type KRAS assessed as inhibition of cell viability incubated for 5 days by Cell Titer Glo assay; type: functional, cell-based; conditions: NCI-H1975, 120 h
[6] = molecular target: von Hippel-Lindau disease tumor suppressor/GTPase KRas (Homo sapiens, UniProt P01116+P40337, G12D); test: PROTAC activity at VHL/KRAS G12D mutant in human ASPC1 cells assessed as induction of protein degradation incubated for 24 hrs by Western blot analysis; type: cell-based
von Hippel-Lindau disease tumor suppressor/GTPase KRas, sequence (P01116 whole entry G12D, stated change not applied): as the sequence (P01116 whole entry G12D) above
von Hippel-Lindau disease tumor suppressor/GTPase KRas, sequence (P40337 whole entry, stated change not applied): as the sequence (P40337 whole entry partner) above

[7] = test system: von Hippel-Lindau disease tumor suppressor/GTPase KRas (Homo sapiens), P01116+P40337 [G12D]; test: PROTAC activity at VHL/KRAS G12D mutant in human ASPC1 cells assessed as induction of protein degradation incubated for 24 hrs by Western blot analysis relative to control; type: cell-based
[8] = Competitive binding affinity to His-tagged VHL/Elongin C/Elongin B (unknown origin) by FP assay; parameters: species or system Homo sapiens
[9] = Competitive binding affinity to His-tagged VHL/Elongin C/Elongin B/KRAS G12D mutant (unknown origin) by FP assay; parameters: species or system Homo sapiens
[10] = Cooperativity factor alpha, ratio of IC50 for His-tagged VHL/Elongin C/Elongin B (unknown origin) to IC50 for His-tagged VHL/Elongin C/Elongin B/KRAS (unknown origin)
GTPase KRas = GTPase KRas (Homo sapiens, UniProt P01116, G12D); test: Inhibition of KRAS G12D mutant (unknown origin) preincubated for 15 mins followed by SOS1/EDA-GTP-DY-647P1 addition measured after 30 mins by HTRF assay
GTPase KRas, sequence (P01116 whole entry G12D): as the sequence (P01116 whole entry G12D) above

Homo sapiens = species: Homo sapiens; test: Binding affinity to His-tagged VHL/Elongin C/Elongin B/GST-tagged KRAS G12D mutant (unknown origin) incubated for 1 hr by HTRF assay
[11] = test system: von Hippel-Lindau disease tumor suppressor/GTPase KRas (Homo sapiens), P01116+P40337 [G12D]; test: PROTAC activity at VHL/KRAS G12D mutant in human ASPC1 cells assessed as induction of protein degradation at 1 to 10 uM incubated for 7 hrs by Western blot analysis; type: cell-based; conditions: dose 1-10 µM
[12] = Drug uptake in human ASPC1 cells at 10 uM incubated for 1 hr by MS analysis; type: ADME, cell-based; conditions: aspc1, 1 h

CCc1c(F)ccc2cc(O)cc(-c3ncc4c(N5C[C@H]6CC[C@@H](C5)N6)nc(OC[C@@H]5CCCN5C)nc4c3F)c12
Ratio IC50 [1]: 21.14
Activity [2]: Active
IC50 (ASPC1 [3]): 2940 nM
IC50 (ASPC1 [4]): 139 nM
IC50 (ASPC1 [5]): 154 nM
IC50 (SNU1): 29.8 nM
IC50 (HPAF-II): 165 nM
IC50 (AGS): 20.1 nM
IC50 (Panc 04.03): 112 nM
IC50 (NCI-H358): > 10000 nM
IC50 (NCI-H1975): > 10000 nM

CCc1cccc2cc(O)cc(-c3ncc4c(N5C[C@H]6CC[C@@H](C5)N6)nc(OC[C@@H]5CCCN5CCCCCC(=O)N[C@H](C(=O)N5C[C@H](O)C[C@H]5C(=O)N[C@@H](C)c5ccc(-c6scnc6C)cc5)C(C)(C)C)nc4c3F)c12
DC50 ([6]; read-out: DC50): 1200 nM
Emax [7]: 89.7%

CCc1cccc2cc(O)cc(-c3ncc4c(N5C[C@H]6CC[C@@H](C5)N6)nc(OC[C@@H]5CCCN5CC5CCN(CCC(=O)N[C@H](C(=O)N6C[C@H](O)C[C@H]6C(=O)N[C@@H](C)c6ccc(-c7scnc7C)cc6)C(C)(C)C)CC5)nc4c3F)c12
Emax [7]: 29.8%
IC50 [8]: 2160 nM
IC50 [9]: 80.4 nM
Ratio IC50 [10]: 26.9

CCc1cccc2cc(O)cc(-c3ncc4c(N5C[C@H]6CC[C@@H](C5)N6)nc(OC[C@@H]5CCCN5CCCCCCCC(=O)N[C@H](C(=O)N5C[C@H](O)C[C@H]5C(=O)N[C@@H](C)c5ccc(-c6scnc6C)cc5)C(C)(C)C)nc4c3F)c12
DC50 ([6]; read-out: DC50): 2260 nM
Emax [7]: 82.4%

CCc1cccc2cc(O)cc(-c3ncc4c(N5C[C@H]6CC[C@@H](C5)N6)nc(OC[C@@H]5CCCN5CCCCOCCC(=O)N[C@H](C(=O)N5C[C@H](O)C[C@H]5C(=O)N[C@@H](C)c5ccc(-c6scnc6C)cc5)C(C)(C)C)nc4c3F)c12
DC50 ([6]; read-out: DC50): 1310 nM
Emax [7]: 90.2%

CCc1cccc2cc(O)cc(-c3ncc4c(N5C[C@H]6CC[C@@H](C5)N6)nc(OC[C@@H]5CCCN5C)nc4c3F)c12
IC50 (GTPase KRas): 5.8 nM

CCc1cccc2cc(O)cc(-c3ncc4c(N5C[C@H]6CC[C@@H](C5)N6)nc(OC[C@@H]5CCCN5CCCOCCC(=O)N[C@H](C(=O)N5C[C@H](O)C[C@H]5C(=O)N[C@@H](C)c5ccc(-c6scnc6C)cc5)C(C)(C)C)nc4c3F)c12
DC50 ([6]; read-out: DC50): 132 nM
Emax [7]: 98.1%
IC50 [8]: 908 nM
IC50 [9]: 25.4 nM
Ratio IC50 [10]: 35.7

CCc1cccc2cc(O)cc(-c3ncc4c(N5C[C@H]6CC[C@@H](C5)N6)nc(OC[C@@H]5CCCN5C[C@H]5CC[C@H](C(=O)N[C@H](C(=O)N6C[C@H](O)C[C@H]6C(=O)N[C@@H](C)c6ccc(-c7scnc7C)cc6)C(C)(C)C)CC5)nc4c3F)c12
DC50 [6]: Not Active
Emax [7]: inactive

C#Cc1c(F)ccc2cc(O)cc(-c3ncc4c(N5C[C@H]6CC[C@@H](C5)N6)nc(OC[C@@H]5CCCN5CCCCOCC(=O)N[C@H](C(=O)N5C[C@H](O)C[C@H]5C(=O)N[C@@H](C)c5ccc(-c6scnc6C)cc5)C(C)(C)C)nc4c3F)c12
DC50 ([6]; read-out: DC50): 116 nM
Emax [7]: 99.5%

CCc1cccc2cc(O)cc(-c3ncc4c(N5C[C@H]6CC[C@@H](C5)N6)nc(OC[C@@H]5CCCN5CCOCCC(=O)N[C@H](C(=O)N5C[C@H](O)C[C@H]5C(=O)N[C@@H](C)c5ccc(-c6scnc6C)cc5)C(C)(C)C)nc4c3F)c12
DC50 ([6]; read-out: DC50): 1820 nM
Emax [7]: 89.5%

CCc1cccc2cc(O)cc(-c3ncc4c(N5C[C@H]6CC[C@@H](C5)N6)nc(OC[C@@H]5CCCN5C5CCC6(CC5)CCN(CC(=O)N[C@H](C(=O)N5C[C@H](O)C[C@H]5C(=O)N[C@@H](C)c5ccc(-c7scnc7C)cc5)C(C)(C)C)CC6)nc4c3F)c12
Emax [7]: 53.9%

CCc1cccc2cc(O)cc(-c3ncc4c(N5C[C@H]6CC[C@@H](C5)N6)nc(OC[C@@H]5CCCN5CCCCCCC(=O)N[C@H](C(=O)N5C[C@H](O)C[C@H]5C(=O)N[C@@H](C)c5ccc(-c6scnc6C)cc5)C(C)(C)C)nc4c3F)c12
DC50 ([6]; read-out: DC50): 572 nM
Emax [7]: 98.9%

CCc1cccc2cc(O)cc(-c3ncc4c(N5C[C@H]6CC[C@@H](C5)N6)nc(OC[C@@H]5CCCN5C5CC6(CCN(CC(=O)N[C@H](C(=O)N7C[C@H](O)C[C@H]7C(=O)N[C@@H](C)c7ccc(-c8scnc8C)cc7)C(C)(C)C)CC6)C5)nc4c3F)c12
DC50 ([6]; read-out: DC50): 134 nM
Emax [7]: 85.1%

CCc1c(F)ccc2cc(O)cc(-c3ncc4c(N5C[C@H]6CC[C@@H](C5)N6)nc(OC[C@@H]5CCCN5CCCCOCC(=O)N[C@H](C(=O)N5C[C@@H](O)C[C@H]5C(=O)N[C@@H](C)c5ccc(-c6scnc6C)cc5)C(C)(C)C)nc4c3F)c12
Activity (Homo sapiens): inactive
Activity [11]: inactive
IC50 (ASPC1 [5]): > 2000 nM
IC50 (SNU1): 927 nM
IC50 (HPAF-II): > 4000 nM
IC50 (AGS): 955 nM
IC50 (Panc 04.03): 3360 nM
IC50 (NCI-H358): > 10000 nM
IC50 (NCI-H1975): > 10000 nM

CCc1cccc2cc(O)cc(-c3ncc4c(N5C[C@H]6CC[C@@H](C5)N6)nc(OC[C@@H]5CCCN5CCCCC(=O)N[C@H](C(=O)N5C[C@H](O)C[C@H]5C(=O)N[C@@H](C)c5ccc(-c6scnc6C)cc5)C(C)(C)C)nc4c3F)c12
DC50 ([6]; read-out: DC50): 1010 nM
Emax [7]: 96.7%

CC(=O)N[C@H](C(=O)N1C[C@H](O)C[C@H]1C(=O)N[C@@H](C)c1ccc(-c2scnc2C)cc1)C(C)(C)C
IC50 [8]: 343 nM
IC50 [9]: 380 nM
Ratio IC50 [10]: 0.9

CCc1cccc2cc(O)cc(-c3ncc4c(N5C[C@H]6CC[C@@H](C5)N6)nc(OC[C@@H]5CCCN5CCCCOCC(=O)N[C@H](C(=O)N5C[C@H](O)C[C@H]5C(=O)N[C@@H](C)c5ccc(-c6scnc6C)cc5)C(C)(C)C)nc4c3F)c12
DC50 ([6]; read-out: DC50): 164 nM
Emax [7]: 99.4%
IC50 [8]: 407 nM
IC50 [9]: 18.9 nM
Ratio IC50 [10]: 21.5
Drug uptake [12]: Active

CCc1cccc2cc(O)cc(-c3ncc4c(N5C[C@H]6CC[C@@H](C5)N6)nc(OC[C@@H]5CCCN5CCC(=O)NCCC(=O)N[C@H](C(=O)N5C[C@H](O)C[C@H]5C(=O)N[C@@H](C)c5ccc(-c6scnc6C)cc5)C(C)(C)C)nc4c3F)c12
DC50 ([6]; read-out: DC50): 3810 nM
Emax [7]: 83.6%
IC50 [8]: 2270 nM
IC50 [9]: 29.8 nM
Ratio IC50 [10]: 76.2
Drug uptake [12]: Active

CCc1c(F)ccc2cc(O)cc(-c3ncc4c(N5C[C@H]6CC[C@@H](C5)N6)nc(OC[C@@H]5C[C@@H](F)CN5CCCCOCC(=O)N[C@H](C(=O)N5C[C@H](O)C[C@H]5C(=O)N[C@@H](C)c5ccc(-c6scnc6C)cc5)C(C)(C)C)nc4c3F)c12
DC50 ([6]; read-out: DC50): 87.2 nM
Emax [7]: 96.2%

CCc1cccc2cc(O)cc(-c3ncc4c(N5C[C@H]6CC[C@@H](C5)N6)nc(OC[C@@H]5CCCN5CCCCCCCCC(=O)N[C@H](C(=O)N5C[C@H](O)C[C@H]5C(=O)N[C@@H](C)c5ccc(-c6scnc6C)cc5)C(C)(C)C)nc4c3F)c12
DC50 ([6]; read-out: DC50): 165 nM
Emax [7]: 89.3%
